Results published in ChEMBL document CHEMBL1151312, “A concise conversion of (-)-sclareol into (+)-coronarin E and (-)-7-epi-coronarin A” (J Nat Prod, 1998).
Values after ≈ are worked out from the molar mass of the structure shown.

Tested on: V79
Test: Cytotoxicity against Chinese hamster V79 cells
Assay type: cell-based
Details: Cricetulus griseus

SMILES: C=C1[C@@H](O)C[C@H]2C(C)(C)CCC[C@]2(C)[C@H]1/C=C/c1ccoc1 [CORONARIN A]
- IC50: 1.65 µg/mL (≈ 5.49 µM)
